# Measured values as given in patent publication US8258257B2 (The Regents of the University of California, priority 2008, dated 2012).
# Where no end group is shown, it is not given here.
# What was measured:
# [1] = target: Cldn-4 deletion mutant proteins fused to GST (Mus musculus, UniProt O35054); assay type: binding
# [2] = test system: Cldn-4 deletion mutant proteins fused to GST; assay type: binding, Mouse
sequence,measurement,setting,value
SLDAGQYVLVMKANSSYSGNYPYSILFQKF [Cpe30],binding to GST-Ecl2 without any TM domain,[1],"detectable binding activity, albeit at much lower affinity"
same,binding to TM3.Ecl2.TM4,[1],consistent binding
same,sensorgram behaviour with full length Cldn-4 fusion,[1],slight decrease in the late stages of association
same,binding to GST cldn-4 fusion proteins,[2],high affinity specific binding
